Test results from ChEMBL document CHEMBL1781953, “Synthesis and antimycobacterial activity of 5-formylaminopyrimidines; analogs of antibacterial purines” (Bioorg Med Chem Lett, 2009).
Converted amounts (≈) assume the structure as drawn.

Experiments:
[1] = system: Escherichia coli; assay: Antibacterial activity against Escherichia coli; format: functional
[2] = system: Staphylococcus aureus; assay: Antibacterial activity against Staphylococcus aureus; format: functional
[3] = Cytotoxicity against african green monkey Vero cells assessed as cell viability at 40 ug/mL after 72 hrs by MTT assay; format: cell-based; details: chlorocebus sabaeus, read-out: Activity
[4] = system: Vero; assay: Cytotoxicity against african green monkey Vero cells after 72 hrs by MTT assay; format: cell-based; details: Chlorocebus sabaeus
[5] = system: Mycobacterium tuberculosis; assay: Antimycobacterial activity against Mycobacterium tuberculosis H37Rv ATCC 27294 by microplate alamar blue assay; format: functional, organism-based

Compound	MIC [1] [mg/L]	MIC [2] [mg/L]	viability at 72 h, 40 ug/mL [3] [%]	EC50 [4] [mg/L]	IC50 [5] [mg/L]	IC90 [5] [mg/L]
COc1ccc(CNc2ncnc(-c3ccco3)c2NC=O)cc1	> 64	> 64				
COc1ccc(CNc2nc(Cl)nc(-c3ccco3)c2NC=O)cc1	> 64	> 64				
COc1ccc(CNc2nc([N+](=O)[O-])nc(-c3ccco3)c2NC=O)cc1	> 64	> 64	62	> 40		
COc1ccc(CNc2nc(C(F)(F)F)nc(-c3ccco3)c2NC=O)cc1					0.26 (≈ 0.663 µM)	0.58 (≈ 1.48 µM)
GENTAMICIN		0.1				
COc1ccc(CNc2nc(F)nc(-c3ccco3)c2NC=O)cc1	> 64	> 64				
